# Assay results taken from patent publication US6989384B2, “Antipicornaviral compounds and compositions, their pharmaceutical uses, and materials for their synthesis” (Agouron Pharmaceuticals, Inc., priority 2000, dated 2006).
# Like-named read-outs stand apart in the source and are kept apart here.
# Columns and labels:
# [1] = molecular target: T1, rhinovirus 3C protease from HRV serotype-14 (Human rhinovirus 14, UniProt P03303); assay: Inhibition of rhinovirus 3C protease activity (FRET assay), HRV-14; assay type: biochemical; conditions: read-out: Protease Inhibition kobs/I
# T1 construct: Recombinant rhinovirus 3C proteases; made in house
# Method in brief: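 Recombinant 3C protease (50–100 nM) was assayed in 50 mM tris pH 7.6, 1 mM EDTA, 2% DMSO, with about 1 μM DABCYL-GRAVFQGPVG-EDANS FRET substrate. Cleavage was followed as the rise in fluorescence. kobs/[I] was derived from progress curves of enzyme-initiated reactions.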
# [2] = molecular target: T2, rhinovirus 3C protease (HRV-89) (Human rhinovirus A serotype 89, UniProt P07210); assay: Inhibition of rhinovirus 3C protease activity (FRET assay), HRV-89; assay type: biochemical, human rhinovirus 89; conditions: HRV-89 3C protease; progress curves, enzyme start; read-out: Protease Inhibition kobs/I
# T2 construct: Recombinant rhinovirus 3C proteases
# HRV-1A = assay: Antirhinoviral H1-HeLa cell culture assay (cell protection, XTT), HRV-1A; assay type: cell-based, human rhinovirus; conditions: Rhinovirus A, HRV1A, 48 h, H1-HeLa cells, two days
# Description: (§1) In this cell protection assay, the ability of compounds to protect cells against HRV infection was measured by the XTT dye reduction method, which is described in Weislow et al., J. Natl. Cancer Inst. 1989, vol. 81, 577–586.
# (§2) H1-HeLa cells were infected with HRV-14 at a multiplicity of infection (m.o.i.) of 0.13 (virus particles/cell) or mock-infected with medium only. Infected or mock-infected cells were resuspended at 8×10^5 cells per mL, and incubated with appropriate concentrations of the compounds to be tested. Two days later, XTT/PMS was added to test plates and the amount of formazan produced was quantified spectrophotometrically at 450/650 nm. The EC50 value was calculated as the concentration of compound that increased the percentage of formazan production in compound-treated, virus-infected cells to 50% of that produced by compound-free, mock-infected cells. The 50% cytotoxic dose (CC50) was calculated as the concentration of compound that decreased the percentage of formazan produced in compound-treated, mock-infected cells to 50% of that produced by compound-free, mock-infected cells.
# (§3) All strains of human rhinovirus (HRV) for use in this assay were purchased from American Type Culture Collection (ATCC), except for HRV serotype-14 (produced from the infectious cDNA clone constructed by Dr. Robert Rueckert, Institute for Molecular Virology, University of Wisconsin, Madison, Wis.). HRV stocks were propagated and viral assays were performed in H1-HeLa cells (ATCC). Cells were grown in minimal essential medium with 10% fetal bovine serum, available from Life Technologies (Gaithersburg, Md.).
# (§4) The compounds were tested against control compounds WIN 51711, WIN 52084, and WIN 54954 (obtained from Sterling-Winthrop Pharmaceuticals), Pirodavir (obtained from Janssen Pharmaceuticals), and Pleconaril (prepared according to the method described in Diana et al., J. Med. Chem 1995, vol. 38, 1355). Antiviral data obtained for the test compounds are shown in the Table, where all data are for HRV serotype-14 unless otherwise noted in parentheses.
# HRV-2 = assay: Antirhinoviral H1-HeLa cell culture assay (cell protection, XTT), HRV-2; assay type: cell-based, human rhinovirus; conditions: Rhinovirus A, HRV2, 48 h, HRV-2, H1-HeLa cells, two days
# Description: as §1, §2, §3, §4
# HRV-10 = assay: Antirhinoviral H1-HeLa cell culture assay (cell protection, XTT), HRV-10; assay type: cell-based; conditions: Human rhinovirus sp., HRV10, 48 h, HRV-10, H1-HeLa cells, two days
# Description: as §1, §2, §3, §4
# [3] = Cytotoxicity in mock-infected H1-HeLa cells (XTT); assay type: cell-based; conditions: human, two days, read-out: Toxicity CC50
# Description: as §1, §2, §3
# [4] = molecular target: T3, rhinovirus 3C protease (HRV-2) (Human rhinovirus 2, UniProt P04936); assay: Inhibition of rhinovirus 3C protease activity (FRET assay), HRV-2; assay type: biochemical; conditions: read-out: Protease Inhibition kobs/I
# T3 construct: Recombinant rhinovirus 3C proteases; made in house
# Description: Stock solutions (50 mM, in DMSO) of various compounds were prepared; dilutions were in the same solvent. Recombinant rhinovirus 3C proteases (see Birch et al., “Purification of recombinant human rhinovirus 14 3C protease expressed in Escherichia coli,” Protein Expr. Pur. 1995, 6(5), 609–618) from serotypes 14, 16, and 2 were prepared by the following standard chromatographic procedures: (1) ion exchange using Q Sepharose Fast Flow from Pharmacia; (2) affinity chromatography using Affi-Gel Blue from Biorad; and (3) sizing using Sephadex G-100 from Pharmacia. Each assay sample contained 2% DMSO, 50 mM tris pH 7.6, 1 mM EDTA, a test compound at the indicated concentration, approximately 1 μM substrate, and 50–100 nM protease. The kobs/I values were obtained from reactions initiated by addition of enzyme rather than substrate. RVP activity was measured in the fluorescence resonance energy transfer assay. The substrate was (N-terminal) DABCYL-(Gly-Arg-Ala-Val-Phe-Gln-Gly-Pro-Val-Gly)-EDANS. In the uncleaved peptide, the EDANS fluorescence was quenched by the proximal DABCYL group. When the peptide was cleaved, the quenching was relieved, and activity was measured as an increase in fluorescence signal. In the Table, unless otherwise indicated, all data are for rhinovirus 3C protease from HRV serotype-14 (produced from the infectious cDNA clone constructed by Dr. Robert Rueckert, Institute for Molecular Virology, University of Wisconsin, Madison, Wis.). The data in the column designated kobs/[I] were measured from progress curves in enzyme start experiments.
# HRV-14 = assay: Antirhinoviral H1-HeLa cell culture assay (cell protection, XTT), HRV-14; assay type: cell-based, human rhinovirus; conditions: read-out: Cell Protection EC50
# Description: as §1, §2, §3, §4
# [5] = molecular target: T4, rhinovirus 3C protease (HRV-16) (Human rhinovirus 16, UniProt Q82122); assay: Inhibition of rhinovirus 3C protease activity (FRET assay), HRV-16; assay type: biochemical; conditions: HRV-16 3C protease; progress curves, enzyme start; read-out: Protease Inhibition kobs/I
# T4 construct: Recombinant rhinovirus 3C proteases; made in house
# Description: Stock solutions (50 mM, in DMSO) of various compounds were prepared; dilutions were in the same solvent. Recombinant rhinovirus 3C proteases (see Birch et al., “Purification of recombinant human rhinovirus 14 3C protease expressed in Escherichia coli,” Protein Expr. Pur. 1995, 6(5), 609–618) from serotypes 14, 16, and 2 were prepared by the following standard chromatographic procedures: (1) ion exchange using Q Sepharose Fast Flow from Pharmacia; (2) affinity chromatography using Affi-Gel Blue from Biorad; and (3) sizing using Sephadex G-100 from Pharmacia. Each assay sample contained 2% DMSO, 50 mM tris pH 7.6, 1 mM EDTA, a test compound at the indicated concentration, approximately 1 μM substrate, and 50–100 nM protease. The kobs/I values were obtained from reactions initiated by addition of enzyme rather than substrate. RVP activity was measured in the fluorescence resonance energy transfer assay. The substrate was (N-terminal) DABCYL-(Gly-Arg-Ala-Val-Phe-Gln-Gly-Pro-Val-Gly)-EDANS. In the uncleaved peptide, the EDANS fluorescence was quenched by the proximal DABCYL group. When the peptide was cleaved, the quenching was relieved, and activity was measured as an increase in fluorescence signal. […] The data in the column designated kobs/[I] were measured from progress curves in enzyme start experiments.
# H1-HeLa cells = assay: Cytotoxicity in mock-infected H1-HeLa cells (XTT); assay type: cell-based; conditions: two days, read-out: Toxicity CC50
# Description: as §1, §2, §3
# [6] = Rhinovirus B, HRV14, H1-HeLa, 48 h
# [7] = HRV-14, H1-HeLa cells, XTT, two days
# T3 sequence (P04936 1508-1690): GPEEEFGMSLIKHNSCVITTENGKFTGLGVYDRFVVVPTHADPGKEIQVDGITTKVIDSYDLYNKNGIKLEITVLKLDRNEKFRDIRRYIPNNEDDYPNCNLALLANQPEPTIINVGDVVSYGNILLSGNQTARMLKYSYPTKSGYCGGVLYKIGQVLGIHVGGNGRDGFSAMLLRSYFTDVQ
# T1 sequence (P03303 1538-1719): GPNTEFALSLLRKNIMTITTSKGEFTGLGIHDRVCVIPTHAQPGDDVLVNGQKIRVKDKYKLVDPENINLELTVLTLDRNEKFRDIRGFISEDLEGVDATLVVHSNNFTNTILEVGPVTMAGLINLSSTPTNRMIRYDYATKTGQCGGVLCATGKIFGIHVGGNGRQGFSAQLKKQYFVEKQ
# T4 sequence (Q82122 1511-1693): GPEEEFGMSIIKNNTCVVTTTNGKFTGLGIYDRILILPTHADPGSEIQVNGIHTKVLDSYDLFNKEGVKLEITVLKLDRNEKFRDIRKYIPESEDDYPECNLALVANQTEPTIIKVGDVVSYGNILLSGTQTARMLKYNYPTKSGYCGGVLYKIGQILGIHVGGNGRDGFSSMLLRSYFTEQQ
# T2 sequence (P07210 1522-1704): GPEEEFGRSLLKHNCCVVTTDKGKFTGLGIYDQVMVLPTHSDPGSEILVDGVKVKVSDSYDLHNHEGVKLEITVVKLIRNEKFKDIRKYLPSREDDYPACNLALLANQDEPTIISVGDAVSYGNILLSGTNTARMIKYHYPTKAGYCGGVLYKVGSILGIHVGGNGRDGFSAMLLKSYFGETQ
Compound,kinact/KI [1],EC50 (HRV-1A),EC50 (HRV-2),EC50 (HRV-10),CC50 at 2 days [3],kinact/KI [4],EC50 (HRV-14; [6]),CC50 (H1-HeLa cells),EC50 (HRV-14; [7]),further results
"CCOC(=O)/C=C/[C@H](C[C@@H]1CCNC1=O)NC(=O)C1=Cc2cc(Cl)ccc2OC1 [Compound 44, 4S-[(6-Chloro-2H-chromene-3-carbonyl)-amino]-5-(2-oxo-pyrrolidin-3S-yl)-pent-2-enoic acid ethyl ester]",19700 M⁻¹ s⁻¹,5.1 µM,645 nM,459 nM,> 100 µM,385 M⁻¹ s⁻¹,160 nM,,,kinact/KI [2]: 800 M⁻¹ s⁻¹; kinact/KI [5]: 2200 M⁻¹ s⁻¹
"CCOC(=O)/C=C/[C@H](C[C@@H]1CCNC1=O)NC(=O)c1ccc2ccccc2c1 [Compound 1, 4S-[(naphthalene-2-carbonyl)-amino]-5-(2-oxo-pyrrolidin-3S-yl)-pent-2-enoic acid ethyl ester]",1090 M⁻¹ s⁻¹,,1350 nM,,> 100 µM,110 M⁻¹ s⁻¹,150 nM,,,
"Cc1cc(CCCCCCCOc2ccc(C3=N[C@@H](C)CO3)cc2)on1 [WIN 52084, reference compound]",,,,,,,,> 10 µM,70 nM,
"CCOC(=O)/C=C/[C@H](C[C@@H]1CCNC1=O)NC(=O)C1=Cc2cc(Br)ccc2OC1 [Compound 52, 4S-[(6-Bromo-2H-chromene-3-carbonyl)-amino]-5-(2-oxo-pyrrolidin-3S-yl)-pent-2-enoic acid ethyl ester]",25000 M⁻¹ s⁻¹,5.07 µM,,546 nM,65 µM,372 M⁻¹ s⁻¹,175 nM,,,
"Cc1cc(CCCCCCCOc2ccc(C3=NCCO3)cc2)on1 [WIN 51711, reference compound]",,,,,,,,> 60 µM,780 nM,
"Cc1cc(CCCCCOc2c(Cl)cc(C3=NCCO3)cc2Cl)on1 [WIN 54954, reference compound]",,,,,,,,> 63 µM,2130 nM,
"CCOC(=O)/C=C/[C@H](C[C@@H]1CCNC1=O)NC(=O)c1ccc2ccc(Br)cc2c1 [Compound 53, 4S-[(7-Bromo-naphthalene-2-carbonyl)-amino]-5-(2-oxo-pyrrolidin-3S-yl)-pent-2-enoic acid ethyl ester]",31400 M⁻¹ s⁻¹,4.18 µM,422 nM,546 nM,56.2 µM,385 M⁻¹ s⁻¹,184 nM,,,
"CCOC(=O)/C=C/[C@H](C[C@@H]1CCNC1=O)NC(=O)c1ccc2ccc(O)cc2c1 [Compound 54, 4S-[(7-Hydroxy-naphthalene-2-carbonyl)-amino]-5-(2-oxo-pyrrolidin-3S-yl)-pent-2-enoic acid ethyl ester]",,,,,,,,,,"kinact/KI ([1]; HRV-14 3C protease, progress curves, enzyme start): 220 M⁻¹ s⁻¹; kinact/KI ([4]; HRV-2 3C protease, progress curves, enzyme start): 35 M⁻¹ s⁻¹"
